Active and inactive are the calls of the source. No cut-off for these calls is given here.
Columns and labels:
[1] = biological target: UDP-galactopyranose mutase (Mycobacterium tuberculosis) (UniProt P9WIQ1); assay: Binding affinity to His6-tagged Mycobacterium tuberculosis UDP-galactopyranose mutase expressed in Escherichia coli BL21 assessed as increase in melting temperature using UDP-Galp as substrate at < 100 uM in presence of Sypro Orange by thermal shift assay
[2] = biological target: T1, UDP-galactopyranose mutase (Mycobacterium tuberculosis, UniProt P9WIQ1); assay: Inhibition of Mycobacterium tuberculosis UDP-galactopyranose mutase expressed in Escherichia coli BL21 using […] as substrate by cornish-bowden plot analysis
T1 sequence (P9WIQ1 whole entry): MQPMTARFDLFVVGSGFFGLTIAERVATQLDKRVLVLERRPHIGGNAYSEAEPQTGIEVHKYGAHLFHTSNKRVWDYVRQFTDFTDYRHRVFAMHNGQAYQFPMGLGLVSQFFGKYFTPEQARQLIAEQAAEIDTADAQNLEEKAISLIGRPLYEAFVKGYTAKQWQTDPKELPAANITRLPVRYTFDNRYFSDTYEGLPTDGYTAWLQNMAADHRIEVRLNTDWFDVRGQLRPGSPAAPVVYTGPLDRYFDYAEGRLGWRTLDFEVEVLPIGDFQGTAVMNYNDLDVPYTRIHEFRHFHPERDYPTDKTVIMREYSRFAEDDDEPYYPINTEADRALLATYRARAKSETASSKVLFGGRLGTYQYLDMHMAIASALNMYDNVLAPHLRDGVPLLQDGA

[3] = biological target: UDP-galactopyranose mutase (Mycobacterium tuberculosis) (UniProt P9WIQ1); assay: Binding affinity to His6-tagged Mycobacterium tuberculosis UDP-galactopyranose mutase expressed in Escherichia coli BL21 assessed as change melting temperature up to 600 uM in presence of Sypro Orange by thermal shift assay
[4] = Aggregation property of compound in PBS at pH 7 assessed as critical aggregation concentration by DLS assay; format: physicochemical; details: buffer
[5] = biological target: UDP-galactopyranose mutase (Mycobacterium tuberculosis) (UniProt P9WIQ1); assay: Binding affinity to His6-tagged Mycobacterium tuberculosis UDP-galactopyranose mutase expressed in Escherichia coli BL21 assessed as change melting temperature at 20 uM in presence of Sypro Orange by thermal shift assay
[6] = biological target: T1, UDP-galactopyranose mutase; assay: Inhibition of His6-tagged Mycobacterium tuberculosis reduced UDP-galactopyranose mutase expressed in Escherichia coli BL21 assessed as reduction in UDPGalf production using UDPGalp as substrate by HPLC analysis
[7] = biological target: UDP-galactopyranose mutase (Mycobacterium tuberculosis) (UniProt P9WIQ1); assay: Binding affinity to His6-tagged Mycobacterium tuberculosis UDP-galactopyranose mutase expressed in Escherichia coli BL21 assessed as increase in melting temperature using UDP-Galp as substrate at 600 to 800 uM in presence of Sypro Orange by thermal shift assay; details: dose 600-800 µM
[8] = biological target: UDP-galactopyranose mutase (Mycobacterium tuberculosis) (UniProt P9WIQ1); assay: Binding affinity to His6-tagged Mycobacterium tuberculosis reduced UDP-galactopyranose mutase expressed in Escherichia coli BL21 assessed as increase in corrected fluorescence intensity at 100 to 1000 uM in presence of ANS by fluorescence-based binding assay; details: dose 100-1000 µM
[9] = biological target: UDP-galactopyranose mutase (Mycobacterium tuberculosis) (UniProt P9WIQ1); assay: Binding affinity to His6-tagged Mycobacterium tuberculosis UDP-galactopyranose mutase expressed in Escherichia coli BL21 assessed as decrease in melting temperature using UDP-Galp as substrate at 100 to 400 uM in presence of Sypro Orange by thermal shift assay; details: dose 100-400 µM
[10] = biological target: UDP-galactopyranose mutase (Mycobacterium tuberculosis) (UniProt P9WIQ1); assay: Binding affinity to His6-tagged Mycobacterium tuberculosis reduced UDP-galactopyranose mutase expressed in Escherichia coli BL21 assessed as increase in corrected fluorescence intensity using UDP-Galp as substrate at 100 to 1000 uM in presence of ANS by fluorescence-based binding assay; details: dose 100-1000 µM
[11] = biological target: UDP-galactopyranose mutase (Mycobacterium tuberculosis) (UniProt P9WIQ1); assay: Binding affinity to His6-tagged Mycobacterium tuberculosis UDP-galactopyranose mutase expressed in Escherichia coli BL21 assessed as decrease in melting temperature at 800 to 1000 uM in presence of Sypro Orange by thermal shift assay; details: dose 800-1000 µM
[12] = Aggregation property of compound in PBS at pH 7 at 80 uM by DLS assay; format: physicochemical; details: buffer, pH 7, 80 µM
[13] = biological target: T1, UDP-galactopyranose mutase; assay: Inhibition of His6-tagged Mycobacterium tuberculosis reduced UDP-galactopyranose mutase expressed in Escherichia coli BL21 assessed as reduction in UDPGalf production using UDPGalp as substrate in presence of TritonX100 by HPLC analysis
[14] = biological target: T1, UDP-galactopyranose mutase; assay: Inhibition of Mycobacterium tuberculosis UDP-galactopyranose mutase expressed in Escherichia coli BL21 using […] as substrate by Dixon plot analysis
[15] = biological target: T1, UDP-galactopyranose mutase; assay: Inhibition of His6-tagged Mycobacterium tuberculosis UDP-galactopyranose mutase expressed in Escherichia coli BL21 using […] as substrate by Dixon plot analysis

UDP-galactopyranose mutase (Mycobacterium tuberculosis), sequence (P9WIQ1 whole entry, looked up): as the sequence (P9WIQ1 whole entry) above

In the case of Cc1[nH]n(-c2ccc(Cl)cc2)c(=O)c1C(=O)c1ccc(Cl)cc1, the Activity [1] is reported as “Active”, the Ki [2] is reported as ~400 µM and the Activity [3] is reported as “inactive”. The CAC [4] was > 50 µM, the ΔTm [5] was 5 °C and the IC50 [6] was 880 µM. The Activity [7] was “Active”, the Activity [8] was “Active” and the Activity [9] was “Active”. The Activity [10] was “Active”, the Activity [11] was “Active” and the Activity [12] was “Active”. For the same molecule, the IC50 [13] was 590 µM and the Ki [14] was ~135 µM.
OC(c1ccc(Cl)cc1)c1cn(-c2ccc(Cl)cc2)nn1 (stereo not given) gave an IC50 [6] of 150 µM and an IC50 [13] of 2710 µM.
In the case of Cc1cc(OC(=O)c2ccc(S(N)(=O)=O)cc2)n(-c2ccc(Cl)cc2)n1, the IC50 [6] is reported as 500 µM, the Ki [15] is reported as ~51 µM and the IC50 [13] is reported as 1130 µM.
With Cc1nn(-c2ccc(Cl)cc2)c(O)c1C(=O)c1ccccc1 the IC50 [6] was 610 µM and the IC50 [13] was 1510 µM.
Work on Cc1nn(-c2ccc(Cl)cc2)c(O)c1S(=O)(=O)c1ccc(Cl)cc1 yielded an IC50 [6] of 225 µM and an IC50 [13] of 4340 µM.
For O=C(CCc1cn(-c2ccc(Cl)cc2)nn1)Oc1ccc(Cl)cc1, the IC50 [6] was 530 µM and the IC50 [13] was 1260 µM.

— ChEMBL document CHEMBL5370588, “Unraveling the unexpected aggregation behavior of Pyrazole-Based compounds Targeting Mycobacterium tuberculosis UDP-Galactopyranose mutase” (Bioorg Med Chem, 2023)
